Measured values: patent US7635572B2, “Methods for conducting assays for enzyme activity on protein microarrays” (Life Technologies Corporation, priority 2004, dated 2009)
Like-named read-outs stand apart in the source and are kept apart here.

How the values were obtained:
[1] = target: T1, plurality of kinases (Table 5) (Homo sapiens, UniProt O14965); assay: Further analysis of a plurality of inhibitors and a plurality of kinases on microarray (Example IX, Table 5); type: biochemical; settings: plate C6;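 also: inhibition of each kinase by the inhibitors is given as a qualitative level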;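 as to Inhibition level, CDKL3: level 0 no or unclear inhibition to Level 2 substantial inhibition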;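 as to Inhibition level, MAP3K4: level 0 no or unclear inhibition to Level 2 substantial inhibition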;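 as to Inhibition level, MAP4K3: level 0 none or unclear then 1 little or marginal then 2 substantial inhibition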;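 as to Inhibition level, STK6: level 0 no or unclear inhibition to Level 2 substantial inhibition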;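 as to Inhibition level, TBK1: level 0 no or unclear inhibition to Level 2 substantial inhibition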
T1 sequence (O14965 1-403): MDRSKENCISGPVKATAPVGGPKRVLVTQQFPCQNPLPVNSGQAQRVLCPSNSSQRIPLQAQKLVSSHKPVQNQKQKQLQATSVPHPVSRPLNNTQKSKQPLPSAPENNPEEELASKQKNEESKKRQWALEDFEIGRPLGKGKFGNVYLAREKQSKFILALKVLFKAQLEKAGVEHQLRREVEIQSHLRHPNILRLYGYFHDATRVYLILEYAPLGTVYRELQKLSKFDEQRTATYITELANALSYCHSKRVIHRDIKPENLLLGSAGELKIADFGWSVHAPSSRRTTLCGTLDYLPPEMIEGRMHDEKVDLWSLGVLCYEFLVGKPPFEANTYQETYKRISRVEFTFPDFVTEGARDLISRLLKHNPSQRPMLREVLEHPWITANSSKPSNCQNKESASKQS

[2] = target: plurality of kinases (Table 5) (Homo sapiens, UniProt P06239); assay: as above; type: biochemical
plurality of kinases (Table 5) (Homo sapiens, UniProt P06239), sequence (P06239 whole entry): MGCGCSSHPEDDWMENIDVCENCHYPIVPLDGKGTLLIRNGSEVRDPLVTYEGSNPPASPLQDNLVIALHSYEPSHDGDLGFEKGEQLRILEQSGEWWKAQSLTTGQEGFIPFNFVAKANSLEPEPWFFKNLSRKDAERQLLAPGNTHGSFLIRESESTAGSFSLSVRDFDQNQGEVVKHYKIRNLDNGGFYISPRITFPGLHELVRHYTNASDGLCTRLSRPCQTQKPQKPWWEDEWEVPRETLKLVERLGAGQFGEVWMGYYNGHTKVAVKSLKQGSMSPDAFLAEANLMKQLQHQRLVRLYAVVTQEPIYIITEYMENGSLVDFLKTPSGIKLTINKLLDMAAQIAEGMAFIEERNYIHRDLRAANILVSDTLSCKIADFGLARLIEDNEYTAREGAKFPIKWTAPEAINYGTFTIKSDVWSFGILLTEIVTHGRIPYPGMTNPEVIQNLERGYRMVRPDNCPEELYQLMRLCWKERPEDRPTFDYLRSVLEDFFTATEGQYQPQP

[3] = target: plurality of kinases (Table 5) (Homo sapiens, UniProt P11362); assay: as above; type: biochemical; settings: plate D12; inhibitor 100 uM
plurality of kinases (Table 5) (Homo sapiens, UniProt P11362), sequence (P11362 22-822): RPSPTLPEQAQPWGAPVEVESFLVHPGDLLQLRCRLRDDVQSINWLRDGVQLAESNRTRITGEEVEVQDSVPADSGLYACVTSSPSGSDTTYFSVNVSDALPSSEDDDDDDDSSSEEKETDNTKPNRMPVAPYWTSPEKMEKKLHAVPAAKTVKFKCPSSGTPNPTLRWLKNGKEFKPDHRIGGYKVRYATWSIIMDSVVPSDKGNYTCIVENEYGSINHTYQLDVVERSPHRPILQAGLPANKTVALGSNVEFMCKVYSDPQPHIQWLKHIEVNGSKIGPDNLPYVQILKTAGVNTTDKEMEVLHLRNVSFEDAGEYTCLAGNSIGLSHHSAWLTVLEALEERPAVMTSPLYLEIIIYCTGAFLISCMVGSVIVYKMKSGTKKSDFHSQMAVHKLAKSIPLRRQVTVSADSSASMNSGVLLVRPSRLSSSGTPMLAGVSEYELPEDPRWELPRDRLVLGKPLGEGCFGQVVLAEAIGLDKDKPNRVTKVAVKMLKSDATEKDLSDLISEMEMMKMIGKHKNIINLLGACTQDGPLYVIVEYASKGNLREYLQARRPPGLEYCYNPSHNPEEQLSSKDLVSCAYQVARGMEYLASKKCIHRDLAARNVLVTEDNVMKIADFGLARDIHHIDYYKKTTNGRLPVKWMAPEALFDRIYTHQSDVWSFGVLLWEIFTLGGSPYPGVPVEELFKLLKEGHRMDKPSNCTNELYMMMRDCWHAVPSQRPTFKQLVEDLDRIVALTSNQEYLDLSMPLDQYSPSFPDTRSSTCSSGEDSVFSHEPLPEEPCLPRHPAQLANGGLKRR

[4] = target: T2, plurality of kinases (Table 5) (Homo sapiens, UniProt Q8IVH8); assay: as above; type: biochemical; settings: plate C5; inhibitor 100 uM
T2 sequence (Q8IVH8 1-894): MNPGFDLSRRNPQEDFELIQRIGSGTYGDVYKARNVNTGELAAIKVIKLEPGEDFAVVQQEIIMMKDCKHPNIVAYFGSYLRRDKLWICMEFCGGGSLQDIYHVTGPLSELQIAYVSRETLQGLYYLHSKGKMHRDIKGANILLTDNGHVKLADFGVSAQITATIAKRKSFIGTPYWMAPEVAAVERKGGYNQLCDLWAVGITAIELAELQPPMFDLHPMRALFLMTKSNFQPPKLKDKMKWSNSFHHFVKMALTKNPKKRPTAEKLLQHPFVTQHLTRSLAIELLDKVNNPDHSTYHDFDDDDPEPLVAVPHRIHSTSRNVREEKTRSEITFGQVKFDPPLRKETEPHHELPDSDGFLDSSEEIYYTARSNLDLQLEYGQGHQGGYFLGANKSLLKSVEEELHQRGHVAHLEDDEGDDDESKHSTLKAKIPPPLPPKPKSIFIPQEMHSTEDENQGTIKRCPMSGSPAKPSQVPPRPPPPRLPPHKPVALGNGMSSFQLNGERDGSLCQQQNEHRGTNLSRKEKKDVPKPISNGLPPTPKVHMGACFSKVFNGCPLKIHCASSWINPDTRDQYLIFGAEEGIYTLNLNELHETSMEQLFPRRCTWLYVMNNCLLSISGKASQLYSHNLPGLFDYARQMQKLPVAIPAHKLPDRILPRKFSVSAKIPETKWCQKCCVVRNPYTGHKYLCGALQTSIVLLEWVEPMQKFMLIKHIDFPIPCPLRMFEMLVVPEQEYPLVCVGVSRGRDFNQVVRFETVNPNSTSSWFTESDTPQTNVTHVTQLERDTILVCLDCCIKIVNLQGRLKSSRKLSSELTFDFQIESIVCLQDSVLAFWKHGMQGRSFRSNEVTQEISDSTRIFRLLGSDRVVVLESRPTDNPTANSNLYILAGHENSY

[5] = target: plurality of kinases (Table 5) (Homo sapiens, UniProt Q8IVW4); assay: as above; type: biochemical; settings: plate F12; inhibitor 100 uM
plurality of kinases (Table 5) (Homo sapiens, UniProt Q8IVW4), sequence (Q8IVW4 whole entry): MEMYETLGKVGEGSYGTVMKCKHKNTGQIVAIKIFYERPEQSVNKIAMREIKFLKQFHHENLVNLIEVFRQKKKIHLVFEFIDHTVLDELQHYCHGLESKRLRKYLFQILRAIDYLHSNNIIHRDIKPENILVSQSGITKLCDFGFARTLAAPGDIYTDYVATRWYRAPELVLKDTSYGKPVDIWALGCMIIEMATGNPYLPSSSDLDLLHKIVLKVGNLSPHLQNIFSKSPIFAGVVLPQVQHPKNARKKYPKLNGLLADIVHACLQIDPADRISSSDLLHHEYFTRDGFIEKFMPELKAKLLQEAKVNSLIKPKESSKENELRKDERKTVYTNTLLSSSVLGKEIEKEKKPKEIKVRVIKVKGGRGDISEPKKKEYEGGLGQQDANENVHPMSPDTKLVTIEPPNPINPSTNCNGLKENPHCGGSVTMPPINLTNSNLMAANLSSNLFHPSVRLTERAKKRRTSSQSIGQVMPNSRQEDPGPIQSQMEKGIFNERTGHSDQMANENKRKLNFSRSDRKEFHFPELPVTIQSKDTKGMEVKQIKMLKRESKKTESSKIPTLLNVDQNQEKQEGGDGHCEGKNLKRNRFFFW

[6] = target: T3, plurality of kinases (Table 5) (Homo sapiens, UniProt Q9UHD2); assay: as above; type: biochemical; settings: plate G1; inhibitor 100 uM
T3 sequence (Q9UHD2 1-729): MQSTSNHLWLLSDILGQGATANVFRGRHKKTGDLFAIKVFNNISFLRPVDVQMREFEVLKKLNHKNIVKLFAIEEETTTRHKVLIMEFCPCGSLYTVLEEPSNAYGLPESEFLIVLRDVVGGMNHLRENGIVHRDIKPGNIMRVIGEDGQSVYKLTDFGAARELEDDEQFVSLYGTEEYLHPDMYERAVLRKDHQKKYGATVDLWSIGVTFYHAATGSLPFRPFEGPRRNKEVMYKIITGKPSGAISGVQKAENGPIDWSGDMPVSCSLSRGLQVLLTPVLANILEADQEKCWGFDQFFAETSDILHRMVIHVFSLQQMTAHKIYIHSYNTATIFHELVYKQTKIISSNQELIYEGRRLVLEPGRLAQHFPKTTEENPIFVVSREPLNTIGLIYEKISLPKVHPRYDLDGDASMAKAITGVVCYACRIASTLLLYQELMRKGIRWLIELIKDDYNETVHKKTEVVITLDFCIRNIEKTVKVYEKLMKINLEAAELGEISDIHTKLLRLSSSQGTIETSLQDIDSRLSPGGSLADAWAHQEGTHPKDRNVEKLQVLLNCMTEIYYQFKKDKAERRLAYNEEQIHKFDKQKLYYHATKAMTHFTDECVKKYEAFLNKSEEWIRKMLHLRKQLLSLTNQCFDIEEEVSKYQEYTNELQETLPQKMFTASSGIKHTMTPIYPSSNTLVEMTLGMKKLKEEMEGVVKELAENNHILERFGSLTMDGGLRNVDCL

[7] = target: plurality of kinases (Table 5) (Homo sapiens, UniProt Q9Y6R4); assay: as above; type: biochemical; settings: plate E7; inhibitor 100 uM
plurality of kinases (Table 5) (Homo sapiens, UniProt Q9Y6R4), sequence (Q9Y6R4 whole entry): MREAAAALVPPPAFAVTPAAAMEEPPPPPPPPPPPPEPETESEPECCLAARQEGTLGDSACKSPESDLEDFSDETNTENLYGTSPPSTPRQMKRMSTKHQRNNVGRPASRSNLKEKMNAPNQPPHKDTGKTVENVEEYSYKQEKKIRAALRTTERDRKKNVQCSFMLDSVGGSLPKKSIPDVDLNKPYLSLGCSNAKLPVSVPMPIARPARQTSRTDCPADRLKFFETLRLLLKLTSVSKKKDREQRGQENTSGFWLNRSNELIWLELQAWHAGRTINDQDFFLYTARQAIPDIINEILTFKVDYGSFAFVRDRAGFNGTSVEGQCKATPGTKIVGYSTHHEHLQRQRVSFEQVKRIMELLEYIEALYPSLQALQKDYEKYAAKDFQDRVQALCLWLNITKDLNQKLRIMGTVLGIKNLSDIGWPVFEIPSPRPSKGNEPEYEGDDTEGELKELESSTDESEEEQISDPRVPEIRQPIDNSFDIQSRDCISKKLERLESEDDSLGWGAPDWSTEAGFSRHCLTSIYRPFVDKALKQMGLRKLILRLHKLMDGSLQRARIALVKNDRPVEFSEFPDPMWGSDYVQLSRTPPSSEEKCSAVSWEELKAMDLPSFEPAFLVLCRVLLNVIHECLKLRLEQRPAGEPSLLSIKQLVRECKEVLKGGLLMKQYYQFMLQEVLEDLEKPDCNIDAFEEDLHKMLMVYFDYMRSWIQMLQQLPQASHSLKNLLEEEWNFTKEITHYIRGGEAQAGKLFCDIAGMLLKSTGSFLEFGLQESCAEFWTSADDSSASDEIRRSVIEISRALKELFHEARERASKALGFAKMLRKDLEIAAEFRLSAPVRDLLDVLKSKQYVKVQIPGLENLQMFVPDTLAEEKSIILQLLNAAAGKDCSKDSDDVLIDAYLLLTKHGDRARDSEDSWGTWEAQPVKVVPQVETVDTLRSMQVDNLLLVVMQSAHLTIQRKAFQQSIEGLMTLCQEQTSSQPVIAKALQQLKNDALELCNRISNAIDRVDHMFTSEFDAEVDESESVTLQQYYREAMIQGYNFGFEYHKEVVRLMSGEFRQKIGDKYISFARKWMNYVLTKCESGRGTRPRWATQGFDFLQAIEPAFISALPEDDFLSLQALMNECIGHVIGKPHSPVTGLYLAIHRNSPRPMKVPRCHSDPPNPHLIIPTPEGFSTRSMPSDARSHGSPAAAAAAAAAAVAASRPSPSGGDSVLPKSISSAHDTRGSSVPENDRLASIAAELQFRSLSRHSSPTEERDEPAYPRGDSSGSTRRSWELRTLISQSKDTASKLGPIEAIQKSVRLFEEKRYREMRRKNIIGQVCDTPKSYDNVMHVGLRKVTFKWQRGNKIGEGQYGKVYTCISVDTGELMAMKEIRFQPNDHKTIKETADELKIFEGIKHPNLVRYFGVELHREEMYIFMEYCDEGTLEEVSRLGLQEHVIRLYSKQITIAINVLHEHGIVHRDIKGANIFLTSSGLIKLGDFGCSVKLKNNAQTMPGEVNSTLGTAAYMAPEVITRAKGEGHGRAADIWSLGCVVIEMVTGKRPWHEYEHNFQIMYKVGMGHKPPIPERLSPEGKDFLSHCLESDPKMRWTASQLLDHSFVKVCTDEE

39 kinases (Table 4) = settings: known general specificities of the inhibitors, Table 3; cited from earlier work

Inhibition level, STK6 ([1]; inhibitor 100 uM) | Inhibition level, LCK ([2]; plate A6, inhibitor 100 uM) | Inhibition level, FGFR1 [3] | Inhibition level, STK6 ([1]; Genistein <3.7 mM) | Inhibition level, LCK ([2]; plate A6, Genistein <3.7 mM) | Inhibition level, STK6 ([1]; Ro-31-8220 90 uM) | Inhibition level, LCK ([2]; plate A6, Ro-31-8220 90 uM) | SMILES | Inhibition level, MAP4K3 [4] | Inhibition level, CDKL3 [5] | Inhibition level, TBK1 [6] | Inhibition level, MAP3K4 [7] | General Specificity (known) (39 kinases (Table 4)) | Inhibition level, LCK [2] | Inhibition level, STK6 ([1]; Staurosporine 21.5 uM)
2 | 2 | 0 | 0 | 0 |  |  | O=c1c(-c2ccc(O)cc2)coc2cc(O)cc(O)c12 [Genistein] | 2 | 0 | 2 | 1 | tyrosine |  | 
0 | 2 | 1 |  |  |  |  | O=S(=O)(NCCNC/C=C/c1ccc(Br)cc1)c1cccc2cnccc12 [H-89] | 1 | 1 | 2 | 1 | serine/threonine |  | 
2 |  | 2 |  |  |  |  | CC(C)(C)n1nc(-c2ccc(Cl)cc2)c2c(N)ncnc21 [PP2] | 2 | 2 | 1 | 2 | tyrosine |  | 
 |  |  |  |  |  |  | O=c1c(O)c(-c2ccc(O)c(O)c2)oc2cc(O)cc(O)c12 [Quercetin] | 1 | 0 | 0 | 0 |  |  | 
2 | 2 | 2 |  |  | 0 | 0 | Cn1cc(C2=C(c3cn(CCCSC(=N)N)c4ccccc34)C(=O)NC2=O)c2ccccc21 [Ro-31-8220] | 2 | 2 | 2 | 2 | serine/threonine |  | 
 |  |  |  |  |  |  | CN[C@@H]1C[C@H]2O[C@@](C)([C@@H]1OC)n1c3ccccc3c3c4c(c5c6ccccc6n2c5c31)C(=O)NC4 [Staurosporine] |  |  |  |  | broad |  | 0

SMILES | Inhibition level, STK6 ([1]; inhibitor 100 uM) | Inhibition level, LCK ([2]; plate A6, inhibitor 100 uM) | Inhibition level, FGFR1 [3] | Inhibition level, STK6 ([1]; Genistein <3.7 mM) | Inhibition level, LCK ([2]; plate A6, Genistein <3.7 mM) | Inhibition level, STK6 ([1]; Ro-31-8220 90 uM) | Inhibition level, LCK ([2]; plate A6, Ro-31-8220 90 uM) | Inhibition level, MAP4K3 [4] | Inhibition level, CDKL3 [5] | Inhibition level, TBK1 [6] | Inhibition level, MAP3K4 [7] | General Specificity (known) (39 kinases (Table 4)) | Inhibition level, LCK [2] | Inhibition level, STK6 ([1]; Staurosporine 21.5 uM)
N#C/C(=C/c1ccc(O)c(O)c1)C(=O)NCc1ccccc1 [AG 490] | 2 | 2 | 0 |  |  |  |  | 1 | 2 | 2 | 2 | tyrosine |  | 
COc1cc2ncnc(Nc3cccc(Cl)c3)c2cc1OC [AG 1478] | 0 |  | 1 |  |  |  |  | 2 | 1 | 2 | 1 |  | 2 | 
CC(=O)c1c(O)c(C)c(O)c(Cc2c(O)c3c(c(C(=O)/C=C/c4ccccc4)c2O)OC(C)(C)C=C3)c1O [Rottlerin (Mallotoxin)] | 2 | 2 | 1 |  |  |  |  | 1 | 1 | 1 | 1 |  |  | 
